Data as given in patent US8163952B2, “RAR receptor agonist ligands and use thereof in human medicine and cosmetics” (Galderma Research & Development, priority 2007, dated 2012).

Experiments:
RARα = target: T1, RARα (Homo sapiens, UniProt P10276); assay: Transactivation assay (luciferase reporter, crossed curves vs reference agonist, Schild regression); assay type: cell-based; conditions: HeLa stable transfectants, ERE-βGlob-Luc-SV-Neo reporter and RARα ER-DBD-puro; 18 hours incubation; apparent Kd; read-out: RARα Kdapp
T1 sequence (P10276 183-462 limits assumed): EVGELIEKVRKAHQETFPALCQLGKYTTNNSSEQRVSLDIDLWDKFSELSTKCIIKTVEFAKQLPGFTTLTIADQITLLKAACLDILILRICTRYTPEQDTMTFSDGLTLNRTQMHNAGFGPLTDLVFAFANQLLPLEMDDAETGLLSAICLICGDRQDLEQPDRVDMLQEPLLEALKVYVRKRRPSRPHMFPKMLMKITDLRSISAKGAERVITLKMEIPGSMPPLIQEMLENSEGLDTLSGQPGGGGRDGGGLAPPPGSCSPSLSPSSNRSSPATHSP
Method: (§1) This activity on RARα, β and γ receptors is measured in a transactivation test and quantified by means of the dissociation constant Kdapp (apparent).
(§2) The activation of receptors with an agonist (activator) in HeLa cells leads to the expression of a reporter gene, luciferase, which, in the presence of a substrate, generates light. The activation of the receptors can thus be measured by quantifying the luminescence produced after incubation of the cells in the presence of a reference agonist. Inhibitory products will displace the agonist from its site, thus preventing activation of the receptor. The activity is measured by quantifying the decrease in light produced. This measurement makes it possible to determine the inhibitory activity of the compounds according to the invention.
(§3) In this study, a constant is determined which represents the affinity of the molecules for the receptor. Since this value can fluctuate depending on the basal activity and the expression of the receptor, it is referred to as the Kd apparent (KdApp).
(§4) To determine this constant, “crossed curves” of the test product against a reference agonist, 4-[2-(5,5,8,8-tetramethyl-5,6,7,8-tetrahydronaphthalen-2-yl)propenyl]benzoic acid, are realized in 96-well plates. The test product is used at 10 concentrations and the reference agonist at 7 concentrations. In each well, the cells are in contact with a concentration of the test product and with a concentration of the reference agonist, 4-[2-(5,5,8,8-tetramethyl-5,6,7,8-tetrahydronaphthalen-2-yl)]propenyl]benzoic acid. Measurements are also carried out for the total agonist control (4-[2-(5,5,8,8-tetramethyl-5,6,7,8-tetrahydro-naphthalen-2-yl)propenyl]benzoic acid) and the inverse agonist control, 4-{(E)-3[4-(4-tert-butylphenyl)-5,5,8,8-tetramethyl-5,6,7,8-tetrahydronaphthalen-2-yl]-3-oxopropenyl}benzoic acid.
(§5) These AC50 values are used to calculate the Schild regression by plotting a straight line corresponding to the Schild equation (“Quantitation in receptor pharmacology” Tervy P. Kenakin, Receptors and Channels, 2001, 7, 371-385).
(§6) The HeLa cell lines used are stable transfectants containing the ERE-βGlob-Luc-SV-Neo (reporter gene) and RAR (α, β, γ) ER-DBD-puro plasmids. These cells are seeded in 96-well plates at a rate of 10 000 cells per well in 100 μl of DMEM medium without phenol red, supplemented with 10% of defatted calf serum. The plates are then incubated at 37° C., 7% CO2, for 4 hours.
(§7) The plates are then incubated for 18 hours at 37° C., 7% CO2. The culture medium is removed by turning the plates over, and 100 μl of a 1:1 PBS/luciferin mixture are added to each well. After 5 minutes, the plates are read using a luminescence reader.

RARβ = target: T2, RARβ (Homo sapiens, UniProt P10826); assay: as above; assay type: cell-based; conditions: HeLa stable transfectants, ERE-βGlob-Luc-SV-Neo reporter and RARβ ER-DBD-puro; 18 hours incubation; apparent Kd; read-out: RARβ Kdapp
T2 sequence (P10826 154-455 limits assumed): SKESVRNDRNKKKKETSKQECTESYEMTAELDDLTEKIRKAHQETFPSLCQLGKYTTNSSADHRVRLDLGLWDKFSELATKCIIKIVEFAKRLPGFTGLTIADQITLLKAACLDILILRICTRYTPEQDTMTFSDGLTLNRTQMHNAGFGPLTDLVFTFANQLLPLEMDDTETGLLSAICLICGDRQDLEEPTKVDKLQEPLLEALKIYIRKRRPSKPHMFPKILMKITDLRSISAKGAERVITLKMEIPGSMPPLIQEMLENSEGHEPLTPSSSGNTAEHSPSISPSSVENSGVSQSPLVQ
Method: as §1, §2, §3, §4, §5, §6, §7

RARγ = target: T3, RARγ (Homo sapiens, UniProt P13631); assay: as above; assay type: cell-based; conditions: HeLa stable transfectants, ERE-βGlob-Luc-SV-Neo reporter and RARγ ER-DBD-puro; 18 hours incubation; apparent Kd; read-out: RARγ Kdapp
T3 sequence (P13631 185-454 limits assumed): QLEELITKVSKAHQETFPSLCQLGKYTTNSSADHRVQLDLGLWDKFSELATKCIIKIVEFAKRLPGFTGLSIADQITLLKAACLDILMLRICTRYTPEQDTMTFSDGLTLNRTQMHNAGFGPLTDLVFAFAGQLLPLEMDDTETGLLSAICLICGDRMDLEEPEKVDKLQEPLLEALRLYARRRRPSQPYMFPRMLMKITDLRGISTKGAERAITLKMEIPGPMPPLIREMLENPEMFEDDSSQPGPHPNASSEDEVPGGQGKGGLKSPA
Method: as §1, §2, §3, §4, §5, §6, §7

SMILES	Kd (RARα) [µM]	Kd (RARβ) [µM]	Kd (RARγ) [µM]	melting point [°C]
CCN(CC)c1ccc(C(O)C#Cc2ccc(C(=O)O)cc2)cc1C(C)(C)C (stereo not drawn) [Compound of example 1, 4-[3-(3-tert-butyl-4-diethylaminophenyl)-3-hydroxyprop-1-ynyl]benzoic acid]	0.625	0.185	0.0375	140
CC(C)c1cc(C(O)C#Cc2ccc(C(=O)O)c(O)c2)cc(C(C)C)c1N(C)C (stereo not drawn) [Compound of example 10, 4-[3-(4-Dimethylamino-3,5-diisopropylphenyl)-3-hydroxyprop-1-ynyl]-2-hydroxybenzoic acid]	1	0.12	0.001	–
CCN(CC)c1ccc(C(O)C#Cc2ccc(C(=O)O)cc2)cc1C(C)C (stereo not drawn) [Compound of example 11, 4-[3-(4-diethylamino-3-isopropylphenyl)-3-hydroxyprop-1-ynyl]benzoic acid]	1	0.06	0.03	–
CN(C)c1ccc(C(O)C#Cc2ccc(C(=O)O)cc2)cc1C(C)(C)C (stereo not drawn) [Compound of example 3, 4-[3-(3-tert-butyl-4-dimethylaminophenyl)-3-hydroxyprop-1-ynyl]benzoic acid]	0.25	0.12	0.015	–
CN(C)c1c(Cl)cc(C(O)C#Cc2ccc(C(=O)O)c(O)c2)cc1C(C)(C)C (stereo not drawn) [Compound of example 8, 4-[3-(3-tert-butyl-5-chloro-4-dimethylaminophenyl)-3-hydroxyprop-1-ynyl]-2-hydroxybenzoic acid]	0.25	0.06	0.004	–
CC(C)(C)c1cc(C(O)C#Cc2ccc(C(=O)O)cc2)ccc1N1CCCC1 (stereo not drawn) [Compound of example 4, 4-[3-(3-tert-butyl-4-pyrrolidin-1-ylphenyl)-3-hydroxyprop-1-ynyl]benzoic acid]	1	0.252	0.03	–
CC(C)(C)c1cc(C(O)C#Cc2ccc(C(=O)O)cc2)ccc1N1CCCCC1 (stereo not drawn) [Compound of example 5, 4-[3-(3-tert-butyl-4-piperidin-1-ylphenyl)-3-hydroxyprop-1-ynyl]benzoic acid]	4.01	2.02	–	–

Continued by falling Kd (RARα), values first:

Kd (RARα) [µM]	Kd (RARβ) [µM]	Kd (RARγ) [µM]	melting point [°C]	SMILES
0.25	0.5	0.06	–	CCN(CC)c1ccc(C(O)C#Cc2ccc(C(=O)O)c(O)c2)cc1C(C)(C)C (stereo not drawn) [Compound of example 6, 4-[3-(3-tert-butyl-4-diethylaminophenyl)-3-hydroxyprop-1-ynyl]-2-hydroxybenzoic acid]
0.12	0.015	0.002	–	CN(C)c1c(Cl)cc(C(O)C#Cc2ccc(C(=O)O)cc2)cc1C(C)(C)C (stereo not drawn) [Compound of example 7, 4-[3-(3-tert-butyl-5-chloro-4-dimethylaminophenyl)-3-hydroxyprop-1-ynyl]benzoic acid]
0.06	0.06	0.0005	–	CC(C)c1cc(C(O)C#Cc2ccc(C(=O)O)cc2)cc(C(C)C)c1N(C)C (stereo not drawn) [Compound of example 9, 4-[3-(4-Dimethylamino-3,5-diisopropylphenyl)-3-hydroxyprop-1-ynyl]benzoic acid]
